Measured values taken from patent US12150933B2, “IL-8 inihibitors for use in the treatment of some urological disorders” (DOMPÉ FARMACEUTICI S.P.A., priority 2015, dated 2024).
Where a name gives a salt, the structure may show the parent alone.

How the values were obtained:
CXCR1/CXCR2 = conditions: cited from earlier work
CYP-induced cystitis [1] = assay: Cystometrographic recordings in conscious rats with CYP-induced cystitis; format: in vivo, rat; conditions: 24 hours after CYP 175 mg/kg i.p.
Experimental: Female Sprague Dawley rats (Crl:CD(SD)BR, 250-350 g bw) from Charles River Italy were used in these experiments. Animals were housed with free access to food and water and maintained on a forced 12 hours light-dark cycle at 22-24° C. for at least one week before the experiments were carried out.
Rats, anaesthetized with equithensin solution (2 ml/kg i.p.), were placed in a supine position and an approximately 10 mm midline incision was made in the shaved and cleaned abdominal wall. The urinary bladder was gently freed from adhering tissues, emptied and then cannulated, via an incision at the dome, with a polyethylene cannula (Portex, ID 0.58 mm, OD 0.96 mm), which was permanently sutured with silk thread. The cannula was exteriorized through a subcutaneous tunnel in the retroscapular area, where it was connected with a plastic adapter, in order to avoid the risk of removal by the animal.
For drugs testing, rats were utilized one day after catheter implantation at about 24 hours after administrations CYP.
On the day of the experiment, the rats (fasted overnight) were placed in Bollman's cages; after a stabilization period of 20 min, the free tip of the cannula was connected by a T-shape tube to a pressure transducer and to a peristaltic pump for a continuous infusion of saline solution (room temperature) into the urinary bladder, at the constant rate of 0.05 ml/min. This procedure, termed cystometry, allows the detection of continuous cycles of filling and voiding of the bladder named cystometrograms.
From the cystometrograms acquired by the Biopac System and recorded on a PC the Bladder Volume Capacity (BVC) parameter was calculated as volume capacity, defined as volume (in ml) infused into the bladder and necessary to induce detrusor contraction followed micturition.
Basal BVC was evaluated as mean values from the cystometrograms recorded in 30-60 minutes of time prior the treatment (“BASAL”). Then the bladder infusion was stopped, the animals were treated orally with the test compound or vehicle and, after restarting continuous bladder filling with saline for 4 or 5 hours, BVC values after administration were collected.
BVC parameters were recorded from the cystometrogram over a 4/5 hours period post-dose.

[2] = system: CYP-induced visceral pain; assay: Acute administration in CYP-induced visceral pain in rats (Von Frey mechanical threshold); format: in vivo, rat; conditions: 2 hours after administration, versus pre-treatment
Experimental: Female Sprague Dawley rats (Crl:CD(SD)BR, 250-350 g) from Charles River Italy were used in these experiments. Animals were housed with free access to food and water and maintained on a forced 12 hours light-dark cycle at 22-24° C. for at least one week before the experiments were carried out. The animals were handled according to internationally accepted principles for care of laboratory animals (E.E.C. Council Directive 86/609, […]. 18, 1986). Cyclophosphamide, 75 mg/kg i.p. for 3 times, every 3rd day, was dissolved in distilled water and administered to animals by i.p. route (volume 5 mL/kg). Appropriate weight of Compd. 1 or Compd. 2 was dissolved in saline, all doses of test compounds were administered by oral gavage (volume 2 mL/kg). On the day of the experiment, each rat was placed individually in a clear plastic testing box with a grid floor and allowed to acclimatize for at least 10 min. Visceral sensitivity in response to mechanical stimuli was determined using Von Frey monofilaments (1-2-4-8-15-26-60-100 g) applied in the lower abdominal area (close to the urinary bladder) and on both hind paws plantar surface (to evaluate referred pain). Each Von Frey monofilament was applied 5 times at the level of abdomen and 3 times at the level of each paw, in an ascending order of strength at interval of 5 sec. A stimulus-induced response was considered positive when the paw was sharply withdrawn, paw licking occurred, or the animal flinched upon removal of the filament. Behavioral testing on animals was performed at 3 different times: • before CYP administration (in order to acquire basal values) • after CYP administration, before treatment with the test compound, to verify the pathology (in order to acquire pre-treatment values) • after CYP administration, after treatment (in order to acquire post-treatment values) […] The test was performed in blind. Compd. 1 and Compd. […]

[3] = system: CYP-induced visceral pain; assay: Chronic administration in CYP-induced visceral pain in rats (Von Frey withdrawal threshold); format: in vivo, rat; conditions: 40-80 mg/kg p.o., systemic
Experimental: Cyclophosphamide, 75 mg/kg i.p. for 3 times, every 3rd day, was dissolved in distilled water and administered to animals by i.p. route (volume 5 mL/kg). Appropriate weight of Compd. 1 or Compd. 2 was dissolved in saline, all doses of test compounds were administered by oral gavage (volume 2 mL/kg).
On the day of the experiment, each rat was placed individually in a clear plastic testing box with a grid floor and allowed to acclimatize for at least 10 min. Visceral sensitivity in response to mechanical stimuli was determined using Von Frey monofilaments (1-2-4-8-15-26-60-100 g) applied in the lower abdominal area (close to the urinary bladder) and on both hind paws plantar surface (to evaluate referred pain).
Each Von Frey monofilament was applied 5 times at the level of abdomen and 3 times at the level of each paw, in an ascending order of strength at interval of 5 sec. A stimulus-induced response was considered positive when the paw was sharply withdrawn, paw licking occurred, or the animal flinched upon removal of the filament.
• before CYP administration (in order to acquire basal values) • after CYP administration and before treatment, to verify the pathology (in order to acquire pre-treatment values) • after chronic treatment, about 18 hours after last administration of Compd. 1 (in order to acquire post-treatment values). • after chronic treatment, 2 hours after the last administration of Compd. 1 (in order to acquire post-treatment values after chronic+acute administration)
Compd. 1 or vehicle was administered p.o. to animals twice daily (according to the pharmacokinetic profile of the compound) for 6 days, starting from 24 hours after last treatment with CYP, when painful symptoms were well established. Nociceptive hypersensitivity was evaluated about 18 hours after the last administration of Compd. 1 (or vehicle) in order to evaluate the effect of chronic administration, or a further dosage of compound was administered and evaluation carried out 2 hours thereafter, in order to compare with acute protocol, described in Example 1.

CYP-induced cystitis [4] = assay: Microscopic examination of urinary bladders after chronic preventive administration; format: in vivo, rat; conditions: preventive Mesna treatment
Text: At the end of the study, the urinary bladders were opened, placed in 10% buffered formalin and stored at room temperature until completion of hystomorphological analysis (see Example 6 below).
At the end of the efficacy study of chronic preventive administration, the urinary bladders were opened, placed in 10% buffered formalin and stored at room temperature until hystomorphological analysis.
Treatment with Compd. […] 1.

[5] = system: CYP-induced visceral pain; assay: Chronic preventive treatment in CYP-induced visceral pain model in rats; comparison with Mesna; format: in vivo, rat; conditions: 12.5 mg/kg i.p. several times a day for 3 days
Experimental: The effect of chronic preventive administration of Compd. 1 in a visceral pain model induced by repeated administration of cyclophosphamide (CYP) in conscious rats was evaluated.
The oral dose of 7 mg/kg of Compd. 1 was chosen on the basis of previous evaluations. Compd. 1 or vehicle was orally administered to animals twice daily (according to the PK profile of the molecule) for 7 days. Mesna_or vehicle was intraperitoneally administered several times a day for 3 days (when CYP was administered).
Repeated treatment with CYP (75 mg/kg i.p. for 3 times, every 3rd day), induced a strong decrease in withdrawal thresholds to noxious stimulus measured at the level of low abdomen and hind-paws. Nociceptive hypersensitivity was evaluated. In the control group, nociceptive thresholds of abdomen and hind-paws were not altered after the treatment with vehicle.
Behavioral testing was performed at 4 different times: • before CYP administration (in order to acquire basal values) • after CYP administration and before treatment with the tested compound, to verify the pathology (in order to acquire pre-treatment values) • after treatment, 42 or 48 hours from the last administration of Compd. 1 or Mesna.

C[C@@H](C(=O)NS(C)(=O)=O)c1ccc(OS(=O)(=O)C(F)(F)F)cc1 [Compd. 2, R(−)-2-[(4′-trifluoromethanesulfonyloxy)phenyl]-N-methanesulfonyl propionamide]
CXCR1/CXCR2 inhibition (CXCR1/CXCR2): potent and selective dual CXCR1/CXCR2 non-competitive allosteric inhibitor
bladder volume capacity (BVC) (CYP-induced cystitis [1]; 20 mg/kg oral): showed efficacy on BVC
bladder volume capacity (BVC) (CYP-induced cystitis [1]; 30 mg/kg oral): showed efficacy on BVC
mechanical threshold, abdomen and hind paws ([2]; 10 mg/kg p.o.): statistically significant increase in mechanical threshold only in the abdomen
mechanical threshold, abdomen and hind paws ([2]; 30 mg/kg p.o.): statistically significant increase in mechanical threshold in both the abdomen and paws area

NCC1(CC(=O)O)CCCCC1 [gabapentin, reference compound]
antinociceptive effect [3]: partial maximum antinociceptive effect

O=S(=O)(O)CCS [Mesna, 2-mercaptoethene sulfate, reference compound]
protective effect on the CYP-induced cystitis (CYP-induced cystitis [4]): did not exert any protective effect
CYP-induced nociceptive behavior [5]: did not produce a reduction of CYP-induced nociceptive behavior
